Data from US20240392302A1, “METHOD FOR DETECTING AND QUANTIFYING RNA” (FLUORESCENCE DIAGNOSIS (SHANGHAI) BIOTECH COMPANY LTD., priority 2021, published 2024).

What was measured:
[1] = Function detection of the nucleic acid aptamer: fluorescence activation of I-5-14 by N16-1, its mutants and base-modified forms; type: biochemical; conditions: for Activation Multiple: 0.5 μM I-5-14 with 2.5 μM RNA; for fluorescence activation effect of base-modified N16-1 for I-5-14: base-modified aptamers
Experimental: A primer containing T7 promoter was used for amplification of corresponding cDNA of RNA to be detected, and T7 RNA polymerase (purchased from Fermentas) was used for obtaining RNA by means of transcription with recovered double-stranded cDNA as a template. 10 μL of 3 M NaAc and 115 μL of DEPC water were added into 20 μL of transcription system, and were mixed well before 150 μL of phenol chloroform-[…] mixture (phenol:chloroform:[…]=25:24:1) was added; then the mixture was mixed well by means of oscillation, and the supernatant was taken after centrifugation at 10,000 rpm for 5 min. An equal volume of chloroform solution was added and was mix well by means of oscillation, and then the supernatant was taken after centrifugation at 10,000 rpm for 5 min; the process was repeated once. 2.5 times the volume of anhydrous ethanol was added into the supernatant, and the mixture was placed in a refrigerator at −20° C. for 30 min and was subject to centrifugation at 12,000 rpm at 4° C. for 5 min; then the supernatant was removed, and the precipitation was cleaned twice with 75% pre-cooled anhydrous ethanol. After volatilization of the ethanol, the precipitation was re-suspended with an appropriate amount of screening buffer, and then was treated at 75° C. for 5 min and was placed at room temperature for more than 10 min for subsequent experiments.
(§1) Nucleic acid aptamer molecules of N16 or N16 mutants were prepared by using the commonly-used experimental method (I), 2.5 μM of nucleic acid aptamer molecules and 0.5 μM of fluorophore molecules were incubated in a detection buffer (40 mM of HEPES, pH 7.4, 125 mM of KCl, 5 mM of MgCl2, 5% DMSO), and the maximum excitation peak and the maximum emission peak of the fluorescence of the nucleic acid aptamer-fluorophore molecular complex were detected with Synergy Neo2 multifunctional enzyme-labeler. Synergy Neo2 multifunctional enzyme-labeler was used again to detect fluorescence intensity of the nucleic acid aptamer-fluorophore molecular complex under its maximum excitation and emission conditions, the control sample ([…] of fluorophore molecules without nucleic acid aptamer) was also measured under the same conditions, and the ratio of fluorescence intensity was calculated. For example, as for fluorescence of the complex formed by 2.5 μM of N16-1 nucleic acid aptamer and 0.5 μM of I-5-14 fluorophore molecules, the maximum excitation peak is 512 nm and the maximum emission peak is 574 nm. It was detected by the Synergy Neo2 multifunctional enzyme-labeler that the fluorescence intensity of the complex at an excitation condition of 512±10 nm and an emission condition of 574 nm±10 nm was 49,088, while the fluorescence intensity of the control (0.5 μM of I-5-14 fluorophore molecules) under the same detection conditions was 399, so the activation multiple of N16-1 nucleic acid aptamer to I-5-14 fluorophore molecules was 123.
According to the results, most N16-1 mutants with a single base mutation retained a relatively strong fluorescence activation effect (no smaller than 2 times) on I-5-14 (Table 2). Some N16-1 mutants with 2 to 5 base mutations still retained a relatively strong fluorescence activation effect (greater than 20 times) for I-5-14 (Table 3). In a word, many single-base and multi-base mutants of N16-1 might still retain the aptamer function of activating the 1-5-14 fluorophore molecules.

[2] = test system: F30-N16-1 RNA aptamer molecules; assay: Binding of F30-N16-1 RNA aptamer molecules with different fluorescent molecules (fluorescence spectrum, activation multiple); type: biochemical; conditions: for Maximum emission peak (nm) / Maximum excitation peak (nm): complex with F30-N16-1; for Activation Multiple: fluorophore with F30-N16-1
Experimental: as §1
F30-N16-1 RNA aptamer molecules were prepared by using the commonly-used experimental method (I), and were used for detecting basic properties, including fluorescence spectrum and fluorescence activation multiple, of the binding of I-5-14 analogues with N16.

[3] = Spectral properties (excitation, emission, light absorption) of N16-1-I-5-14 complex; type: physicochemical; conditions: 2 μM I-5-14 with 10 μM N16-1, or 5 μM pure I-5-14
Experimental: In order to detect the spectral properties of N16-1-I-5-14 complex, N16-1 (SEQ ID NO: 1) RNA was prepared by using the commonly-used experimental method (I). 1 μM of I-5-14 was incubated with 5 μM of N16-1. According to the results, the maximum excitation light of N16-1-I-5-14 complex was 512 nm, and the maximum emission light thereof was 574 nm (FIG. 3B).
In order to detect the difference between the light absorption of N16-1-I-5-14 complex and that of I-5-14 fluorophore molecules per se, 2 μM of I-5-14 incubated with 10 μM of N16-1, or 5 μM of pure I-5-14 was used for detecting the light absorption of I-5-14 and that of N16-1-I-5-14 complex respectively.

[4] = test system: BL21 (DE3, Star) Escherichia coli strain expressing F30-N16-1; assay: Labeling of RNA in bacteria by F30-N16-1-I-5-14 complex; type: cell-based; conditions: F30-N16-1 induced with 1 mM IPTG 4 h; PBS with 2 μM I-5-14
Description: In order to detect the effect of F30-N16-1-I-5-14 in bacteria, a bacterial expression plasmid expressing F30-N16-1 (SEQ ID NO: 2) was constructed first. F30-N16-1 in Example 2 was amplified with primers, pET28a was amplified with primers so as to remove the promoter and polyclonal site region, and then the F30-N16-1 DNA fragment obtained by means of amplification was connected to pET28a linearized vector by using the experimental method (III), and the obtained recombinant plasmid was named as pET28a-T7-F30-N16-1.
BL21 (DE3, Star) Escherichia coli strain was transformed with recombinant plasmid pET28a-T7-F30-N16-1, and monoclone was picked and cultured at 37° C.; when OD600 is about 0.2, 1 mM of IPTG was added to induce the expression of F30-N16-1, and bacteria were collected 4 h later; resuspension was performed with a PBS solution containing 2 μM of I-5-14. BL21 (DE3, Star) Escherichia coli with transformed pET28a empty vector served as control.

[5] = test system: 293T/17 cells expressing F30-N16-1; assay: Labeling of RNA in mammalian cells by F30-N16-1 and I-5-14; type: cell-based; conditions: 1 μm of I-5-14 added 36 h after transfection
Experimental: Main imaging experiments in the examples were carried out by using a confocal laser microscope Leica SP8 equipped with white laser, and an HCXPL APO 63×1.47 oil mirror and a HyD detector were used.
In order to detect labeling of RNA in mammalian cells by using F30-N16-1 and I-5-14, a mammalian cell expression plasmid expressing F30-N16-1 (SEQ ID NO: 2) was constructed. F30-N16-1 in Example 9 was amplified with primers P1, P2, and P3, respectively.
These fragments were inserted into pLKO.1 puro vector by using the experimental method (III), an expression vector obtained thereby was named as pLKO.1-F30-N16-1, and the plasmid expressed F30-N16-1.
293T/17 cells were transfected with pLKO.1-F30-N16-1 plasmid, […] of I-5-14 was added 36 h later so as to label F30-N16-1, cells not expressing the corresponding aptamer served as control, and the labeling effect was detected by using experimental method (V).

[6] = Binding constant of N16-1 and I-5-14; conditions: 10 nM N16-1 with I-5-14 of different concentrations
Experimental: In order to detect the binding constant of N16-1 and I-5-14, 10 nM of N16-1 was incubated with I-5-14 of different concentrations, so that fluorescence values thereof could be detected. According to the results, the binding constant of N16-1 and I-5-14 was 15.69 nM (FIG. 3D).

[7] = complex of 2.5 μM N16-1 and 0.5 μM I-5-14

Row | Molecule | Maximum emission peak (nm) [2] | Maximum excitation peak (nm) [2] | Activation Multiple [2] | other results
1 | CN(CCO)c1ccc(/C=C2\SC(=S)NC2=O)cc1 [I-5-14] | 574 nm | 513 nm | 123 | fluorescence intensity of the control ([1]; 0.5 μM I-5-14 without nucleic acid aptamer, same detection conditions): 399; maximum light absorption [3]: 477 nm; fluorescence of bacteria [4]: bright yellow fluorescence; labeling effect (fluorescence imaging) [5]: very bright yellow fluorescence
2 | CN(CCO)c1ccc2c(c1)C(C)(C)c1cc(/C=C3\NC(=S)NC3=O)sc1-2 [I-5-77] | 783 nm | 736 nm | 5 | 
3 | CN(CCO)c1ccc2c(c1)C(C)(C)c1cc(/C=C3\SC(=S)NC3=S)sc1-2 [I-5-78] | 681 nm | 582 nm | 8 | 
4 | CN(CCO)c1ccc2c(c1)C(C)(C)c1cc(/C=C3\SC(=S)NC3=O)sc1-2 [I-5-79] | 733 nm | 682 nm | 11 | 
5 | CN1C(=O)/C(=C/c2cc3c(s2)-c2ccc(N(CCO)CCO)cc2C3(C)C)SC1=S [I-5-80] | 743 nm | 686 nm | 7 | 
6 | CN(CCO)c1cc2c(s1)-c1sc(/C=C3\NC(=S)N(N)C3=O)cc1C2(C)C [I-5-81] | 713 nm | 635 nm | 7 | 
7 | CN(CCO)c1cc2c(s1)-c1sc(/C=C3\SC(=S)NC3=S)cc1C2(C)C [I-5-82] | 801 nm | 748 nm | 3 | 
8 | CN(CCO)c1cc2c(s1)-c1sc(/C=C3\SC(=S)NC3=O)cc1C2(C)C [I-5-83] | 733 nm | 685 nm | 4 | 
9 | CN1C(=O)/C(=C/c2cc3c(s2)-c2sc(N(CCO)CCO)cc2C3(C)C)SC1=S [I-5-84] | 737 nm | 685 nm | 6 | 
10 | N16-1: nucleic acid aptamer with a sequence SEQ ID NO: 1 (GGGCNCCAGGNGCNGCNNCGGCAGGNAACGGACNNAGANCCACNGNACGCCC; RNA, backbone and the base at N not given here) |  |  |  | fluorescence intensity of the complex ([1]; 2.5 μM N16-1, 0.5 μM I-5-14, excitation 512±10 nm, emission 574 nm±10 nm): 49,088; activation multiple of N16-1 nucleic acid aptamer to I-5-14 fluorophore molecules ([1]; 2.5 μM N16-1, 0.5 μM I-5-14, excitation 512±10 nm, emission 574±10 nm): 123; Activation Multiple ([1]; N16-1 mutants containing a single base mutation): 123; Activation Multiple ([1]; N16-1 mutants containing multi-base mutation): 123; maximum emission peak [1, 7]: 574 nm; maximum excitation peak [1, 7]: 512 nm; Kd [6]: 15.7 nM
11 | N16-2: base-modified N16-1, SEQ ID NO: 4, stem-loop structure bases replaced with deoxyribonucleotides (GGGCNCCAGGNGCNGCNNCGGCAGGNAACGGACNNAGANCCACNGNACGCCC; some stem-loop nucleotides deoxyribonucleotides, positions not given here) |  |  |  | fluorescence activation effect of base-modified N16-1 for I-5-14 [1]: significantly activate
12 | N16-3: base-modified N16-1, SEQ ID NO: 5, some of the bases modified by 2′-F (GGGCNCCAGGNGCNGCNNCGGCAGGNAACGGACNNAGANCCACNGNACGCCC; some nucleotides 2'-fluoro modified, positions not given here) |  |  |  | fluorescence activation effect of base-modified N16-1 for I-5-14 [1]: significantly activate
